The target in one assay is DNA-PK (Homo sapiens (Human), UniProt P78527). Put plainly: DNA-PK biochemical assay (Reaction Biology HotSpot kinase assay, 10 μM ATP). The gist of the method: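 Radiometric 33P-ATP kinase reaction in 20 mM Hepes pH 7.5, 10 mM MgCl2, 1 mM EGTA, 2 mM DTT, 1% DMSO. Compound preincubated with kinase and substrate 20 min at room temperature, then reaction run 2 h at room temperature after ATP addition. Activity read by P81 filter binding.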

Another assay has as its target PI3Kβ (Homo sapiens (Human), UniProt P42338). Put plainly: PI3Kβ biochemical assay (Reaction Biology ADP-Glo). The procedure:
Phosphoinositide 3-kinase R (PI3KP) Biochemical Assay using Reaction Biology's ADP-Glo Assay Platform:
Step 1: Lipid kinases: Reaction Biology Corporation (RBC) currently offers lipid kinases in ADP-Glo format
Step 2: Assay Description Assay principle: The kinase reactions utilize ATP and produce ADP as a byproduct. The ADP production is quantified by ADP-Glo luminescence detection. This is a 3-step reaction: First, the kinase reaction with lipid substrate is carried out in the presence of ATP, and the reaction is quenched and depleted remaining ATP with ADP-Glo™ reagent, and then finally ADP is converted to ATP which is measured using a luciferase/luciferin reaction.
Step 3: Assay Procedure: 1. Prepare kinase in freshly prepared Reaction Buffer, kinase without substrate is delivered to background wells; 2. Deliver substrate into the kinase solution and gently mix, deliver to assay wells; 3. Deliver compounds in 100% DMSO into the kinase reaction mixture by Acoustic technology (Echo550; nanoliter range), incubate for 20 min at room temperature; 4. Deliver ATP into the reaction mixture to initiate the reaction; 5. Incubate for 60 min at 30° C.; 6. Quench the reaction with ADP-Glo reagent and incubate for 40 min; 7. Add Detection Mixture and incubate for 30 min; 8. Measure luminescence.
Step 4: Data Analysis: The luminescence is converted into M ADP production based on ADP standard curves. The nonlinear regression to obtain the standard curve and IC50 values are performed using Graphpad Prism software.
On the technique in general: ADP-Glo turns the ADP formed in a reaction into a luminescent signal.

Assay [1] has as its target PI3Kα (His-PIK3CA/PIK3R1, p110 alpha/p85 alpha) (Homo sapiens (Human), UniProt P42336). Briefly: PI3Kα biochemical assay (HTRF/FRET probe). Type of assay: binding. Here is the method:
Phosphoinositide 3-kinase α (PI3Kα) Biochemical Assay: A solution was prepared containing 0.2 nM Anti-HIS-Terbium (Cisbio, 64CUSTAZU), 3.7 nM designed-probe and 1.0 nM His-PIK3CA/PIK3R1 (p110 alpha/p85 alpha) in FRET Buffer (20 mM HEPES, 10 mM MgCl2, 0.015% Brij-35, 4 mM DTT, 0.05 mg/mL BSA).
In general terms: TR-FRET usually uses a lanthanide donor and a delayed reading to cut background.

Assay [2] deals with PI3Kδ (His-PIK3CD/PIK3R1, p110 delta/p85 alpha) (Homo sapiens (Human), UniProt O00329). Briefly: PI3Kδ biochemical assay (HTRF/FRET probe). The assay is classed as binding. The procedure: Phosphoinositide 3-kinase (PI3K) Biochemical Assay: A solution was prepared containing 0.2 nM Anti-HIS-Terbium (Cisbio, 64CUSTAZU), 40 nM designed-probe and 1.0 nM His-PIK3CD/PIK3R1 (p110 delta/p85 alpha) in FRET Buffer (20 mM HEPES, 10 mM MgCl2, 0.015% Brij-35, 4 mM DTT, 0.05 mg/mL BSA).

Another assay has as its target ATM (Homo sapiens (Human), UniProt Q13315). Briefly: ATM biochemical assay (Reaction Biology HTRF kinase assay, 10 μM ATP). The gist of the method:
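HTRF kinase assay with N-terminal GST-tagged human p53 (aa2-393) substrate, 10 μM ATP, in 50 mM Hepes pH 7.5, 10 mM MnCl2, 1% DMSO. Enzyme preincubated with compound 30 min, reaction 2 h at room temperature. pS15 phosphorylation read by Eu-cryptate anti-p53-pS15/anti-GST-d2 HTRF (615/665 nm).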

Setting [3] is: read-out: DNA-PK HotSpot 10 μM ATP IC50, class symbol.

Molecules are shown by their SMILES. Like-named read-outs stand apart in the source and are kept apart here.

ATM, sequence (Q13315 whole entry, the tested form may be a part): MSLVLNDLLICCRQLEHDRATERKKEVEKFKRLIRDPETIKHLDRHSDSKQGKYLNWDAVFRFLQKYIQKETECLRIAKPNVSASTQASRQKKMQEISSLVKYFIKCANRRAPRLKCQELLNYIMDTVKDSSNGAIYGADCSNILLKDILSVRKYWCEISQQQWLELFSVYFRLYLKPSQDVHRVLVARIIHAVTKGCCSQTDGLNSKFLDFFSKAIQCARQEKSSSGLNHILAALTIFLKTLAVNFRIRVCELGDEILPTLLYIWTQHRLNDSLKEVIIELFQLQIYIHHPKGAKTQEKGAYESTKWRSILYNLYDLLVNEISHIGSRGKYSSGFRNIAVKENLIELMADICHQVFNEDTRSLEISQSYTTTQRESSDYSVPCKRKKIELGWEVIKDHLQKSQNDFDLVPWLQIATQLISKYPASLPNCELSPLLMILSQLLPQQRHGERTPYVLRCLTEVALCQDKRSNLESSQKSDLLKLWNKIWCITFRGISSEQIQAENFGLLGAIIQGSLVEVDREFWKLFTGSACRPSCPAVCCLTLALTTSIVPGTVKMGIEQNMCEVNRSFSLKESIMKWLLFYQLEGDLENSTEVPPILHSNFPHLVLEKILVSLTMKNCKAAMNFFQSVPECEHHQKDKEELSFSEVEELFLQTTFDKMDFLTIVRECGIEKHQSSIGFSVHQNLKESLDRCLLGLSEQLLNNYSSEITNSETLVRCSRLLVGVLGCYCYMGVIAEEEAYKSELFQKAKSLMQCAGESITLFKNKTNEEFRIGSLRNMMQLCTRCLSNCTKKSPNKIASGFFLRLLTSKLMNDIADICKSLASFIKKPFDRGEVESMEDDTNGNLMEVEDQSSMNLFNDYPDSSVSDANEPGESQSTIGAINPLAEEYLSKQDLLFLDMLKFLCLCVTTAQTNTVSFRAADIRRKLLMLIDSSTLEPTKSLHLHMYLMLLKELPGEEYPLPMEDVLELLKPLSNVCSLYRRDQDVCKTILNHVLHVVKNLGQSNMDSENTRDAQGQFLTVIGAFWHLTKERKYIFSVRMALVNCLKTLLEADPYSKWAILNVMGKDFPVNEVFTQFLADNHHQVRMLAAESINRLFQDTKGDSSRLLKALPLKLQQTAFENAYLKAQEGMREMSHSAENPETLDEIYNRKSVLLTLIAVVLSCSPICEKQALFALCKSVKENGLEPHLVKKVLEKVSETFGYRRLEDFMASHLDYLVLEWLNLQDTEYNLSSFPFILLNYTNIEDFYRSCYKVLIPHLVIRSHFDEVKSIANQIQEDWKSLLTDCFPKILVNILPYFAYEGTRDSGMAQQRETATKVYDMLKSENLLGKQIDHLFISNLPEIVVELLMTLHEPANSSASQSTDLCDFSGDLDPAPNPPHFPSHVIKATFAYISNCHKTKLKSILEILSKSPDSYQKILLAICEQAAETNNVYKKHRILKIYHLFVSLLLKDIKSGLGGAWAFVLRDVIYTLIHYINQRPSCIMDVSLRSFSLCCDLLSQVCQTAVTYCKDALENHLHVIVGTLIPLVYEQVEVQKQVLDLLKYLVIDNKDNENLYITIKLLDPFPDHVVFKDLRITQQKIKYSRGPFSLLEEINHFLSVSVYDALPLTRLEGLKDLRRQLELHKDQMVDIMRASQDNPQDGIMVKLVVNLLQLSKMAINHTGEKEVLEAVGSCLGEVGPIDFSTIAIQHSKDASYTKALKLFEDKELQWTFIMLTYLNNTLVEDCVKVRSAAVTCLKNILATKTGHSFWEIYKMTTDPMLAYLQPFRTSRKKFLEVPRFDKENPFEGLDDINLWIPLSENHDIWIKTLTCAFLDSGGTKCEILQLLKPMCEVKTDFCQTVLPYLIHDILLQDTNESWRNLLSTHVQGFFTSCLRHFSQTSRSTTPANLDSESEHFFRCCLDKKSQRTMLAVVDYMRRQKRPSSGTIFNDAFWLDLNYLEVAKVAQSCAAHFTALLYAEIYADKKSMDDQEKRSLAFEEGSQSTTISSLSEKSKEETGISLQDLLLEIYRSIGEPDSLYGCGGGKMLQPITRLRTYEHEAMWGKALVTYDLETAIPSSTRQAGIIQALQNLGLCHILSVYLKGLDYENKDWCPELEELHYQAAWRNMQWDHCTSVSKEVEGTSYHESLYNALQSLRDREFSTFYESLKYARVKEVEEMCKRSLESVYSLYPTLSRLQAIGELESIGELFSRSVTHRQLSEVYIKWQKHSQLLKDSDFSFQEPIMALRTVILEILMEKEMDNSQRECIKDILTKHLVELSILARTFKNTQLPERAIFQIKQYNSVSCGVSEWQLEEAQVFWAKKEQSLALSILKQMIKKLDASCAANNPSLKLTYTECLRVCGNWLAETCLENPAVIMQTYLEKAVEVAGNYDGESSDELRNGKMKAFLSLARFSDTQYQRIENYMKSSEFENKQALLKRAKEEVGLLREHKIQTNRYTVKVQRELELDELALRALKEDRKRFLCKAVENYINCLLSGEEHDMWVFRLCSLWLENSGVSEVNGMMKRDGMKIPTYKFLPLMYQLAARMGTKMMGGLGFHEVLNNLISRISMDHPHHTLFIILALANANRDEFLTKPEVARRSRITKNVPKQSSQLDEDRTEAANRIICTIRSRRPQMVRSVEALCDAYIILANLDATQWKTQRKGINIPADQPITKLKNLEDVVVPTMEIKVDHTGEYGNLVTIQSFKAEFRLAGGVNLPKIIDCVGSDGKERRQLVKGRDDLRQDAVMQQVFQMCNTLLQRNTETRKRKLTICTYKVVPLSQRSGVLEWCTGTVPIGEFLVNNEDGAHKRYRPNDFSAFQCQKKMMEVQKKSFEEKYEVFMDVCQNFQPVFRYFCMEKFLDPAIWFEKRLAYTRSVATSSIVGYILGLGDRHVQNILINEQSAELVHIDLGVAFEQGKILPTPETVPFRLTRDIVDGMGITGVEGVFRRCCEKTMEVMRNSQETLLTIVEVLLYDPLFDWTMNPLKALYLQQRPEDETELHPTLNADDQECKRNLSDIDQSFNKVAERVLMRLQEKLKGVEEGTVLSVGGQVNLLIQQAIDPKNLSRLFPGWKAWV
PI3Kβ, sequence (P42338 whole entry): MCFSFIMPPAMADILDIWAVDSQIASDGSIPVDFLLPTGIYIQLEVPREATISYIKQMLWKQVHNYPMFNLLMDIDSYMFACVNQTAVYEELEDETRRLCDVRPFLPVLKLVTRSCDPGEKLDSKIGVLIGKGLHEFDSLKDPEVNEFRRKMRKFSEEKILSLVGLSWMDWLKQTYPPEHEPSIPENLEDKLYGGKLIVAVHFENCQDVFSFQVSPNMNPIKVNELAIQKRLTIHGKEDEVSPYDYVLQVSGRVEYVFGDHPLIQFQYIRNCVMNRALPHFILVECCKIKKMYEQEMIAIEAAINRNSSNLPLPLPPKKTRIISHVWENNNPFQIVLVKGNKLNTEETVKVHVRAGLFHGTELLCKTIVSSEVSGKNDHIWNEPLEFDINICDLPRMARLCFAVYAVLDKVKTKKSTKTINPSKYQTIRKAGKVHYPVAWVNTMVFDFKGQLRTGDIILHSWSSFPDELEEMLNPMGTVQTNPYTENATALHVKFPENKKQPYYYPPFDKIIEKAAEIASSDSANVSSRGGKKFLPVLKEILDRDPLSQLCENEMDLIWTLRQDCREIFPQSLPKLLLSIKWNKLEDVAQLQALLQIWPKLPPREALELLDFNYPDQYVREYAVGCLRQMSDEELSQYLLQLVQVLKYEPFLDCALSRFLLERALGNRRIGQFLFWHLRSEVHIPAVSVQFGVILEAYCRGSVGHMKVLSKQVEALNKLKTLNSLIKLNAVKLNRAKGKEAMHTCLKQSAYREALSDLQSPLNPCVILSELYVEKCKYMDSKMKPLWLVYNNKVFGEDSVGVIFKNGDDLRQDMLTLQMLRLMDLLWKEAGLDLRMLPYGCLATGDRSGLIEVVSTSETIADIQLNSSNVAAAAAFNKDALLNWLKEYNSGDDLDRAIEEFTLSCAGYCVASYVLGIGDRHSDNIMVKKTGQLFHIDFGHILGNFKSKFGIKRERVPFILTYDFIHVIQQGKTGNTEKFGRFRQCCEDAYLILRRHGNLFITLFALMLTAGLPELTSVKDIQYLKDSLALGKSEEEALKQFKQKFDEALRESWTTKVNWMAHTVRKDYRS
PI3Kβ, sequence (P27986 whole entry partner): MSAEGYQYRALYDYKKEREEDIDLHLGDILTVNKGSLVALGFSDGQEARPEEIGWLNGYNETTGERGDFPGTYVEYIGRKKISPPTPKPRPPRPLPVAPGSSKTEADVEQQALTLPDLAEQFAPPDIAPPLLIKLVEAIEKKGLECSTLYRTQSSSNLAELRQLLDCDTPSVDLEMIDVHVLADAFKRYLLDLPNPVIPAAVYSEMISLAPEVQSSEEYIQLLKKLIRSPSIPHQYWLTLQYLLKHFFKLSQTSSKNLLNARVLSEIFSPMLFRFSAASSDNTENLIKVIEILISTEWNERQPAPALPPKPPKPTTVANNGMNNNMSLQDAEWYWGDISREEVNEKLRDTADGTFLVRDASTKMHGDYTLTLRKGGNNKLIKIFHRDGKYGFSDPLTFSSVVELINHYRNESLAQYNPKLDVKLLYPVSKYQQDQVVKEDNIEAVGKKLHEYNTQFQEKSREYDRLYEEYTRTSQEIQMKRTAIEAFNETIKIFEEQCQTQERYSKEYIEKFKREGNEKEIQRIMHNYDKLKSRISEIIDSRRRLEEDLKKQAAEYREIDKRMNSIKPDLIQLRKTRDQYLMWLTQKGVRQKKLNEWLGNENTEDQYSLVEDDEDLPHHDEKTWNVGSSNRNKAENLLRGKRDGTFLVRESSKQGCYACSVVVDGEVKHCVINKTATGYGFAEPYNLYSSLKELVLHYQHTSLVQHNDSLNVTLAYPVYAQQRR

Take `Cc1cc2c(cc1Nc1ncc3c(n1)n(C1CC4CCC1CC4)c(=O)n3C)OCO2` (stereo not drawn) [Compound 43, 9-((1s,4s)-bicyclo[2.2.2]octan-2-yl)-7-methyl-2-((6-methylbenzo[d][1,3]dioxol-5-yl)amino)-7,9-dihydro-8H-purin-8-one]: the half-inhibitory concentration (IC50) – broadly, the point on the concentration scale where inhibition reaches its midpoint – on DNA-PK (setting [3]) is less than 1 nM; against PI3Kβ (class symbol), not below 1000 nM; in assay [1] (class symbol) it was not below 1000 nM; in assay [2] (class symbol), not below 1000 nM; at ATM (class symbol), 100 to 1000 nM.

`Cc1cc2ncnn2cc1Nc1ncc2c(n1)n([C@H]1C[C@@H]3CC[C@H]1C3)c(=O)n2C` [Compound 45, 9-((1S,2S,4R)-bicyclo[2.2.1]heptan-2-yl)-7-methyl-2-((7-methyl-[1,2,4]triazolo[1,5-a]pyridin-6-yl)amino)-7,9-dihydro-8H-purin-8-one]: the 50% inhibitory concentration (IC50) at DNA-PK (setting [3]) was less than 1 nM; at PI3Kβ (class symbol), 100 to 1000 nM; in assay [1] (class symbol), 100 to 1000 nM; in assay [2] (class symbol) it was not below 1000 nM; against ATM (class symbol) it was 10 to 100 nM.

For `Cc1cc2ncccc2cc1Nc1ncc2c(n1)n(C13CC(F)(C1)C3)c(=O)n2C` [Compound 11, 9-(3-fluorobicyclo[1.1.1]pentan-1-yl)-7-methyl-2-((7-methylquinolin-6-yl)amino)-7,9-dihydro-8H-purin-8-one], the IC50 on DNA-PK (setting [3]) was less than 1 nM; against PI3Kβ (class symbol) it was 100 to 1000 nM; in assay [1] (class symbol) it was 100 to 1000 nM; in assay [2] (class symbol), not below 1000 nM; against ATM (class symbol), 10 to 100 nM.

On to `Cc1cc2ncnn2cc1Nc1ncc2c(n1)n(C13CCC(O)(CC1)C3)c(=O)n2C` [Compound 1, 9-(4-hydroxybicyclo[2.2.1]heptan-1-yl)-7-methyl-2-((7-methyl-[1,2,4]triazolo[1,5-a]pyridin-6-yl)amino)-7,9-dihydro-8H-purin-8-one], for which the IC50 on DNA-PK (class symbol) was less than 1 nM; at DNA-PK (read-out: DNA-PK HotSpot 10 μM ATP IC50, numeric value) it was 0.07 nM; against PI3Kβ (class symbol), 100 to 1000 nM; on PI3Kβ (numeric value), 658 nM; in assay [1] (class symbol) it was 100 to 1000 nM; in assay [1] (numeric value), 128 nM. Further, the IC50 was not below 1000 nM in assay [2] (class symbol); 1830 nM in assay [2] (numeric value); 10 to 100 nM against ATM (class symbol); 88 nM on ATM (read-out: ATM HTRF 10 μM ATP IC50, numeric value).

Take `Cc1cc2ncnn2cc1Nc1ncc2c(n1)n(C13CC(F)(C1)C3)c(=O)n2C` [Compound 12, 9-(3-fluorobicyclo[1.1.1]pentan-1-yl)-7-methyl-2-((7-methyl-[1,2,4]triazolo[1,5-a]pyridin-6-yl)amino)-7,9-dihydro-8H-purin-8-one]: the IC50 on DNA-PK (setting [3]) was less than 1 nM; against PI3Kβ (class symbol) it was not below 1000 nM; in assay [1] (class symbol), not below 1000 nM; in assay [2] (class symbol) it was not below 1000 nM; against ATM (class symbol), 100 to 1000 nM.

`Cc1cc2c(cc1Nc1ncc3c(n1)n(C14CCC(O)(CC1)C4)c(=O)n3C)OCO2` [Compound 2, 9-(4-hydroxybicyclo[2.2.1]heptan-1-yl)-7-methyl-2-((6-methylbenzo[d][1,3]dioxol-5-yl)amino)-7,9-dihydro-8H-purin-8-one]: the IC50 on DNA-PK (setting [3]) is less than 1 nM; against PI3Kβ (class symbol) it was not below 1000 nM; in assay [1] (class symbol) it was not below 1000 nM; in assay [2] (class symbol) it was not below 1000 nM; against ATM (class symbol), 100 to 1000 nM.

With `Cc1cc2ncnn2cc1Nc1ncc2c(n1)n(C1CC3CCC1CC3)c(=O)n2C` (stereo not drawn) [Compound 42, 9-((1s,4s)-bicyclo[2.2.2]octan-2-yl)-7-methyl-2-((7-methyl-[1,2,4]triazolo[1,5-a]pyridin-6-yl)amino)-7,9-dihydro-8H-purin-8-one], the IC50 on DNA-PK (setting [3]) is less than 1 nM; at PI3Kβ (class symbol) it was 100 to 1000 nM; in assay [1] (class symbol), 100 to 1000 nM; in assay [2] (class symbol), not below 1000 nM; at ATM (class symbol), 10 to 100 nM.

Turning to `COC12CCC(n3c(=O)n(C)c4cnc(Nc5cn6ncnc6cc5C)nc43)(CC1)C2` [Compound 6, 9-(4-methoxybicyclo[2.2.1]heptan-1-yl)-7-methyl-2-((7-methyl-[1,2,4]triazolo[1,5-a]pyridin-6-yl)amino)-7,9-dihydro-8H-purin-8-one], the IC50 at DNA-PK (setting [3]) is less than 1 nM; on PI3Kβ (class symbol), 100 to 1000 nM; in assay [1] (class symbol) it was 100 to 1000 nM; in assay [2] (class symbol), not below 1000 nM; against ATM (class symbol), 10 to 100 nM.

For the compound `COC12CCC(n3c(=O)n(C)c4cnc(Nc5cc6c(cc5C)OCO6)nc43)(CC1)C2` [Compound 7, 9-(4-methoxybicyclo[2.2.1]heptan-1-yl)-7-methyl-2-((6-methylbenzo[d][1,3]dioxol-5-yl)amino)-7,9-dihydro-8H-purin-8-one], the IC50 at DNA-PK (setting [3]) is less than 1 nM; against PI3Kβ (class symbol), not below 1000 nM; in assay [1] (class symbol), 100 to 1000 nM; in assay [2] (class symbol) it was not below 1000 nM; against ATM (class symbol) it was 100 to 1000 nM.

As for `Cc1cc2c(cc1Nc1ncc3c(n1)n(C14CC(F)(C1)C4)c(=O)n3C)OCO2` [Compound 13, 9-(3-fluorobicyclo[1.1.1]pentan-1-yl)-7-methyl-2-((6-methylbenzo[d][1,3]dioxol-5-yl)amino)-7,9-dihydro-8H-purin-8-one], the IC50 at DNA-PK (class symbol) is 1 to 10 nM; against PI3Kβ (class symbol), not below 1000 nM; in assay [1] (class symbol) it was not below 1000 nM; in assay [2] (class symbol), not below 1000 nM; at ATM (read-out: ATM HTRF 10 μM ATP IC50, class symbol) it was not below 1000 nM.

`Cc1cc2ncccc2cc1Nc1ncc2c(n1)n([C@H]1C[C@@H]3CC[C@H]1C3)c(=O)n2C` [Compound 44, 9-((1S,2S,4R)-bicyclo[2.2.1]heptan-2-yl)-7-methyl-2-((7-methylquinolin-6-yl)amino)-7,9-dihydro-8H-purin-8-one]: the 50% inhibitory concentration (IC50) was less than 1 nM at DNA-PK (setting [3]); 100 to 1000 nM against PI3Kβ (class symbol); 10 to 100 nM in assay [1] (class symbol); 100 to 1000 nM in assay [2] (class symbol); 1 to 10 nM against ATM (class symbol).

The record behind these values is patent publication US20250263753A1, “BRIDGED CYCLE-BASED INHIBITORS OF DNA-DEPENDENT PROTEIN KINASE AND COMPOSITIONS AND APPLICATION IN GENE EDITING” (Juno Therapeutics, Inc., priority 2023, published 2025).
